Data from US20130267422A1, “COMPOSITION FOR CONTROLLING PLANT DISEASES COMPRISING 3-PENTANOL AS EFFECTIVE COMPONENT” (Korea Research Institute Of Bioscience And Biotechnology, priority 2010, published 2013).

Legend:
Assay type in all cases: in vivo
[1] = tested on: bacterial leaf spot disease; assay: ISR against naturally occurring bacterial leaf spot disease under field conditions; details: pepper, three months after final transplantation
Description: (§1) FIGS. 5A through 5C illustrate the effect of 3-pentanol on ISR against naturally occurring plant diseases under field conditions. FIG. 5A illustrates the effect of 3-pentanol on cucumber mosaic virus (CMV) disease three months after the treatment, FIG. 5B illustrates the symptoms of the viral disease (the photographic image was taken three months after the naturally occurring plant disease), and FIG. 5C illustrates the effect of 3-pentanol on bacterial leaf spot disease three months after treatment. The positive control group plant was treated with 0.5 mM BTH. The disease occurrence rate (i.e., 0 to 5) as an indicator of ISR was measured three months after transplantation (i.e., 0: no symptoms; 5: severe symptoms of necrosis).
(§2) 3-Pentanol, having shown ISR properties, was used for subsequent direct applications. Pepper seeds were purchased from Heungnong Jongmyo (breed; Bugang). The surface of the seeds were sterilized for 5 minutes using 1% sodium hypochlorite and rinsed with sterilized water for 5 min. The surface sterilized seeds were allowed to germinate on MS medium containing an appropriate amount of moisture. […] The disease occurrence rate was determined based on comparison and observation at 10 day intervals until Day 40. The severity of symptoms was scored as in Yang et al. 2009, Plant Pathol. […]

[2] = tested on: Pseudomonas syringae pv. lachrymans; assay: Angular leaf spot disease severity in cucumber; details: 1 mM drench, 28 days post seeding, 7 days after spray-challenge
Experimental: FIG. 7 illustrates induction of systemic resistance by 1 mM 3-pentanol against Pseudomonas syringae pv. lachrymans. The severity of symptoms was scored from 0 to 5 as follows: 0, no symptoms; 1, yellowish color; 2, chlorosis only; 3, partial necrosis and chlorosis; 4, necrosis of the inoculated area and expanded chlorosis; and 5, complete necrosis of the inoculated area. Disease severity of cucumber treated with 3-pentanol was assessed 7 days after infection with P. syringae pv. lachrymans. Water and 1 mM BTH were used as negative and positive controls, respectively. […] Error bars indicate the standard error (n=16). […]
For pathogen challenge, a culture of the compatible bacterial pathogen Pseudomonas syringae pv. lachrymans (OD600=1 in 10 mM MgCl2) was spray-challenged on cucumber leaves until run-off at 7 days after the drench application of chemicals to roots at 21 days after seeding. The severity of symptoms was scored from 0 to 5 as follows: 0, no symptoms; 1, less than 20% diseased area; 2, 21%-40% diseased area; 3, 41%-60% diseased area; 4, 61%-80% diseased area; and 5, more than 81% diseased area of the entire leaf Bacterial pathogens were cultured overnight at 28° C. in King's B medium supplemented with the appropriate antibiotics (100 μg/mL). […] The total numbers of nymph and adult aphids were counted at 34 days after seeding. […]

PR1 and PR4 genes = assay: Expression analysis of resistance genes by qRT-PCR; details: pepper leaf, six hours after inoculation of pathogen
Experimental: FIGS. 3A through 3D illustrate expression of the defense-related genes PR1 and PR4 induced by 3-pentanol following inoculation of pathogen to pepper. Expression of the defense signal transduction related genes PR1 and PR4 at 10 dpt (FIG. 3A), 20 dpt (FIG. 3B), 30 dpt (FIG. 3C), and 40 dpt (FIG. 3D) was determined by quantitative RT-PCR. Relative RNA levels were calibrated and normalized to the level of CaActin mRNA. The samples were collected 6 hours post inoculation of pathogen. The positive control group plant was treated with BTH.
Expression of PR1 and PR4 genes related to the disease resistance of pepper were examined based on quantitative real time-polymerase chain reaction (qRT-PCR). The sequences of the primers used are as follows.
Following bacterial exposure to the backside of a pepper leaf, the pepper leaf was cut using scissors at 0 hours and at 6 hours and stored in liquid nitrogen. RNA isolation began with the pepper leaf being ground in liquid nitrogen using a mortar and pestle, The RNA was then extracted from the pepper leaf by using TRIzol Reagent (Invitrogen Life Technologies). […]

aphids = assay: Aphid infestation of cucumber, naturally occurring aphids; details: 1 mM soil drench, 34 dps
Description: FIGS. 8A and 8B illustrate that 3-pentanol confers induced resistance against aphids in cucumber: (a), Nymph number; (b), Adult number. Bars represent the mean±SE (sample size, n=12 replications per treatment).
Cucumber plants (Cucumis sativus L. cv. backdadagi) were cultivated in an open field under natural conditions. For greenhouse experiments, seeds were directly planted in pots containing soilless medium (Punong Co. Ltd., Gyeongju, Korea) in a 24 hole plug tray under greenhouse condition. The germinated seedlings were transplanted into large pots (diameter=30 cm; height=30 cm). Chemical treatments to elicit induced resistance in cucumber were carried out. Briefly, the 14 day old cucumber seedlings were treated by direct drench application of 50 mL solution of 1 mM 3-pentanol. 3-pentanol bought from Sigma-Aldrich Co. was dissolved in distilled water before application. Treatments with 1 mM benzothiadiazole (BTH) and water were used as positive and negative controls, respectively.
For pathogen challenge, a culture of the compatible bacterial pathogen Pseudomonas syringae pv. lachrymans (OD600=1 in 10 mM MgCl2) was spray-challenged on cucumber leaves until run-off at 7 days after the drench application of chemicals to roots at 21 days after seeding. The severity of symptoms was scored from 0 to 5 as follows: 0, no symptoms; 1, less than 20% diseased area; 2, 21%-40% diseased area; 3, 41%-60% diseased area; 4, 61%-80% diseased area; and 5, more than 81% diseased area of the entire leaf Bacterial pathogens were cultured overnight at 28° C. in King's B medium supplemented with the appropriate antibiotics (100 μg/mL). As a positive control, roots were treated with 1 mM BTH. […] To investigate whether the 3-pentanol elicited plant immunity to aphid feeding, numbers of naturally occurring aphids (in 2011, Daejeon, Korea) were counted. Application of 1 mM BTH was used as a positive control. The total numbers of nymph and adult aphids were counted at 34 days after seeding. The experiments were repeated with similar results.

[3] = tested on: Xanthomonas axonopodis pv. vesicatoria; assay: ISR screening under greenhouse conditions, bacterial spot disease in pepper; details: irrigation, 1 mM, second screening
Experimental: FIGS. 1A and 1B illustrate the effect of the eighteen different volatile organic compounds from Bacillus amyloliquefaciens IN937a strain on plant ISR against Xanthomonas axonopodis pv. vesicatoria under greenhouse conditions. […] The positive control plant was treated with 0.5 mM benzothiadiazole (BTH). The disease occurrence rate (i.e., 0 to 5) as an indicator of ISR was measured on Day 7 following inoculation of pathogen (i.e., 0: no symptoms; 5: severe symptoms of necrosis).
In order to determine the ISR properties of the previously selected, eighteen different volatile organic compounds from the Bacillus amyloliquefaciens IN937a strain, young pepper was grown for 3 to 4 weeks after seeding and irrigated, with the compounds present, in concentrations of 10 μM or 100 nM in 50 ml volumes. One week following irrigation treatment, the plant was exposed to Xanthomonas axonopodis pv. vesicatoria at a concentration of 10^7 CFU/ml. Symptoms of disease were observed five to seven days later, and the level of disease was measured based on a scale from 0 to 5, as described above. In a second screening, four volatile substances, selected from the first screening, were incorporated into the irrigation treatment at concentrations of 1 mM, 10 μM, 0.1 μM, and 1 nM. After exposure to pathogen, symptoms of disease were observed.

[4] = tested on: Xanthomonas axonopodis pv. vesicatoria; assay: ISR under field conditions, bacterial spot disease in pepper; details: for disease level (ISR against bacterial spot disease): 1 mM 3-pentanol; for resistance to the disease (bacterial spot): additional 3-pentanol treatment
Experimental: FIGS. 2A and 2B illustrate the effect of 3-pentanol on plant ISR against Xanthomonas axonopodis pv. vesicatoria under field conditions at different time points. The ISR effect of 3-pentanol was measured on Day 10, Day 20, Day 30, and Day 40 after seedling transplantation. The positive control plant was treated with 0.5 mM BTH. The disease occurrence rate (i.e., 0 to 5) as an indicator of ISR was measured on Day 10 following inoculation of pathogen.
3-Pentanol, having shown ISR properties, was used for subsequent direct applications. Pepper seeds were purchased from Heungnong Jongmyo (breed; Bugang). The surface of the seeds were sterilized for 5 minutes using 1% sodium hypochlorite and rinsed with sterilized water for 5 min. The surface sterilized seeds were allowed to germinate on MS medium containing an appropriate amount of moisture. Germinated seeds, without m having any contamination, were planted in a 50-hole pot (28×54×6 cm) filled with soil for horticultural use (Punong Co., Ltd, Korea) and cultivated for six weeks in a greenhouse at 20 to 30° C. Six weeks after seeding and upon growth of seven to eight main leaves, 1 mM 3-pentanol was diluted to a volume of about 3 liters with sterilized water and poured into the 50-hole pot dish. In order to have effective soaking of the immersion solution in the soil and roots of the plant, immersion was carried out over about 24 hours. After 24-hour immersion, the young pepper plants were transplanted into a field (i.e., Chungyong-Li, Gaduk-Myon, Chungwon-Gun, Chungchongbuk-Do, South Korea 36°32′27.26″ North and 127°33′07.81″ East). The burrow to burrow distance was 1.2 m and the field was about 12.5 m to ensure the treatment areas were evenly mixed with each other. Twenty days after the final transplantation into the field, a secondary application of 1 mM 3-pentanol diluted to a volume of about 3 liters with sterilized water, was applied as 100 mL irrigation treatments for each. The test method used was as follows: after final transplantation, using a syringe, Xanthomonas axonopodis pv. vesicatoria at the concentration of 10^7 CFU/ml was exposed to the backside of the pepper leaf at intervals of 10 days until Day 40. Responses were then examined seven to ten days after exposure. The bacterial inoculant has been cultured for 48 hours at 30° C. after adding antibiotics of Rifampicin (100 μg/ml) to a solid medium. The control group received zero treatment and the treatment group received four applications. The disease occurrence rate was determined based on comparison and observation at 10 day intervals until Day 40. The severity of symptoms was scored as in Yang et al. 2009, Plant Pathol. […]

cucumber mosaic virus = assay: ISR against naturally occurring cucumber mosaic virus disease under field conditions; details: pepper, three months after final transplantation, versus control group
Description: as §1, §2

| Compound | resistance to bacterial leaf spot disease [1] | less symptom severity compared to water control [2] | expression level of PR gene (PR1 and PR4 genes; Day 10 after final transplantation) | expression of PR gene (PR1 and PR4 genes; from Day 20 after transplantation) | number of adult aphids (aphids) | number of aphid nymphs (aphids) | resistance to bacterial spot disease in pepper, outcome of screening [3] | disease level (ISR against bacterial spot disease) ([4]; ten days after final transplantation) | disease level (ISR against bacterial spot disease) ([4]; twenty days after final transplantation) | resistance to the disease (bacterial spot) ([4]; forty days after final transplantation) | resistance to the disease (bacterial spot) ([4]; thirty days after final transplantation) | resistance to cucumber mosaic virus (cucumber mosaic virus) |
| --- | --- | --- | --- | --- | --- | --- | --- | --- | --- | --- | --- | --- |
| CCC(O)CC [3-pentanol] | not different among three treatment groups | 24% | lower expression level of PR gene compared to the control group | the same or higher than that of the control group | 1.0 per leaf | 21 per leaf | finally selected | no difference compared to the control group | less than the control group | higher resistance to the disease compared to the control group | higher resistance to the disease compared to the control group | significantly increased |
| c1ccc2snnc2c1 [BTH, benzothiadiazole, reference compound] | not different among three treatment groups |  |  |  | 0.4 per leaf | 20 per leaf |  |  |  |  |  | almost the same |
